{"source": "paper PMC11224403", "about": "“Des-acyl ghrelin reduces alcohol intake and alcohol-induced reward in rodents” (Translational Psychiatry, 2024)", "key": {"male mice": {"system": "male mice", "test": "Conditioned place preference (rCPP, mCPP)", "type": "in vivo, NMRI mice", "excerpt": "Male and female Rcc Han Wistar rats (8–12 weeks old at arrival; Envigo, Horst, Netherlands) were used for the alcohol drinking and locomotor activity experiments as they drink alcohol to intoxicating levels. For in vivo microdialysis studies male Wistar rats (Charles River, Calco, Italy) were used as they display robust dopamine levels in NAc shell after alcohol injection. […] All rodents were allowed to habituate to the animal facility at least one week before they entered an experiment. During housing (20 °C with 50% humidity) the rodents had free access to water and standard chow (Teklad Rodent Diet; Envigo, Madison, WI, USA). These experiments were approved by the Ethics Committee for Animal Experiments (ethical numbers: 1457/18, 3276/18, 1556/18, 3348/20; Gothenburg, Sweden) and followed the ARRIVE guidelines. The sample sizes of each experiment were based on previous experience in which statistical significance has been detected. The person who conducted the experiments, and analyzed the collected data was aware of the treatment allocation. Only preset exclusion criteria were used when analyzing the data obtained in attempts to exclude confounding factors in analyzing data. In the alcohol drinking experiments leaking bottles and low alcohol consumption (<3.0 g/kg for males; <3.5 g/kg for females) were preset exclusion criteria. The preset exclusion criterion in the ex vivo HPLC-EC, ELISA, and recombinant cell line experiments was contamination of the sample. Misplaced probes, technical difficulties, and damages to the surgery area were preset exclusion criteria for the in vivo microdialysis experiment. Intra-cage male aggression was the preset exclusion criterion for the locomotor activity and CPP experiments. To minimize tentative confounding factors, the order of treatments was stratified, with treatments being mixed for each animal cage and for each apparatus used as well as balancing the alcohol intake between future treatment groups. Although each experiment only was performed once, they were separated over different laboratory days with equal data obtained between sessions.\nAlcohol (95%; Solveco AB, Stockholm, Sweden) was either diluted to a 20% solution using tap water (drinking experiment) or to a 15% (w/v) solution with 0.9% NaCl. Alcohol was in the behavioral and neurochemical tests injected (intraperitoneally, IP) 5 min before the test. A dose of 1.75 g/kg was used in male mice as it causes robust locomotor stimulation and induces a CPP [37–39], and 2 g/kg was used for rats as it elevates the dopamine levels in NAc shell. DAG (Tocrise Bioscience, Bristol, UK) was dissolved in 0.9% NaCl in doses (0.25–2 mg/kg) known to reduce food intake and DAG was injected IP). […]"}, "NET": {"system": "NET", "test": "Transporter inhibition in recombinant cell line, NET", "type": "cell-based, human", "conditions": "8.3 µM DAG; recombinant cells, 3 h incubation, fluorescence dye"}, "[1]": {"conditions": "cited from earlier work", "excerpt": "Although DAG altered the neurotransmission of the VTA, the neuronal activi ... || Although DAG reduced alcohol consumption in rats of both sexes, some sex differences were evident. Specifically, after acute DAG treatment the decline in alcohol consumption was evident at the 24-h time point for males and the 4-h time point for females. Moreover, after repeated DAG treatment the decline was similar at each treatment session for males whereas it escalates over time in females."}}, "data": [{"substance": "des-acyl ghrelin (GSSFLSPEHQRVQQRKESKKPPAKLQPR; Ghrelin-28 non-acylated; UniProt Q9UBU3 24-51, looked up) [DAG, non-octanoylated form of ghrelin; purchased from Tocris (printed Tocrise Bioscience), dissolved in 0.9% NaCl]", "values": [{"measurement": "memory of alcohol reward (mCPP)", "setting": "male mice; DAG 1 mg/kg at post-conditioning", "result": "did not reduce the memory of alcohol reward (mCPP, t14 = 1.36, P = 0.1955)"}, {"measurement": "reward of alcohol in conditioned place preference (rCPP)", "setting": "male mice; DAG 1 mg/kg during conditioning with alcohol", "result": "attenuated the reward of alcohol in the conditioned place preference test (rCPP, t12 = 2.69, P = 0.0197)"}, {"measurement": "rCPP per se", "setting": "male mice; DAG 1 mg/kg, only vehicle control instead of alcohol", "result": "did not influence rCPP (t14 = 0.64, P = 0.5304) per se"}, {"measurement": "mCPP per se", "setting": "male mice; DAG 1 mg/kg, vehicle during conditioning", "result": "DAG did neither influence locomotor activity, rCPP, mCPP nor accumbal dopamine per se"}, {"measurement": "inhibition of NET", "setting": "NET", "result": "no inhibition"}, {"measurement": "elimination pathway", "setting": "[1]; ref [63], [64]", "result": "renal clearance has been suggested to be a major pathway for the elimination of DAG"}, {"measurement": "brain entry", "setting": "[1]; systemic DAG, ref [52]", "result": "enters the brain through non-saturable transmembrane diffusion"}]}]}
